Measurements: US20190209585A1, “COMBINATION THERAPY COMPRISING A POLYUNSATURATED KETONE AND A SECOSTEROID” (Avexxin AS, priority 2016, published 2019)
“Also recorded” adds a separate entry of the source.

Assays:
[1] = system: PGE2 production in PBMC challenged with LPS; assay: PGE2 enzyme immunoassay of supernatants of PBMC challenged with LPS; assay type: cell-based, human
Protocol: Blood from healthy, consenting blood donors was collected at St. Olays Hospital HF, Trondheim, Norway.
From each donor, 2×6 ml heparin tubes with blood were used. Peripheral blood mononuclear cells (PBMC) were isolated using 50 mL SepMate™ tubes ([…]™ Technology, UK) and Lymphoprep™ (Fresenius Kabi, N) density gradient according to the manufacturers instructions.
PBMC were resuspended in RPMI-1640 cell culture medium complemented with 5% heat-inactivated fetal bovine serum (FBS), 0.03% glutamine, 0.01 mg/mL gentamicin and 3.4 ppm β-mercaptoethanol (all reagents from Sigma-Aldrich). […]
PGE2 enzyme immunoassay analysis of PBMC supernatants was performed according to the kit protocol (Cayman Chemicals, #514010, USA). […] The plate was read at OD 420 nm using a Cytation 5 imaging reader from BioTek and data acquired with the corresponding software Gen5 2.09. A four-parameter logistic model was fit to the absorbance data to determine PGE2 levels using the Cayman PGE2 protocol. […]
Accordingly, we isolated peripheral blood mononuclear cells, treated them with various doses and combinations of Compound A and calcipotriol and finally added LPS as a trigger to mount a broad inflammatory response. The cell supernatants collected following 72 hrs of LPS stimulation were next analyzed with respect to levels of PGE2, a key proinflammatory mediator close to the cPLA2α target.

[2] = system: HaCaT cells; assay: Resazurin assay of HaCaT keratinocyte cell proliferation and viability
Protocol: (§1) The spontaneously immortalized, nontumorigenic skin keratinocyte cell line HaCaT was maintained in DMEM supplemented with 5% (v/v) FBS, 0.3 mg/ml glutamine and 0.1 mg/ml gentamicin at 37° C. with 5% CO2 in a humidified atmosphere. Subculture using trypsin-EDTA was performed every 3-4 days with split ratio of 1:3-1:4 to ensure actively proliferating cells.
(§2) Cells were seeded in 96 well plates in fully supplemented medium at a density of 2500 cells per well. Following 72 hours of cultivation, the cells were starved of serum in 0.25% FBS/DMEM overnight to halt proliferation, synchronize and to increase cell sensitivity to treatment. On day 4, the cells were treated with cPLA2α inhibitor Compound A and vitamin D analogue Calcipotriol hydrate (Sigma Aldrich #C4369) and left to incubate for […] in incubator at 37° C. with 5% CO2 in a humidified atmosphere before fluorescence was read at 544 nm excitation and 590 nm emission wavelength. The cells were observed under the microscope to evaluate possible morphology changes and signs of stress before addition of resazurin. The experiments were performed in series of 8 wells per treatment and repeated 2-3 times.
as §2, with “hour” for “hours”, “synchronize the cells” for “synchronize”, “corticosteroid Betamethasone 17, 21-dipropionate (Sigma Aldrich #B1152)” for “cPLA2α inhibitor Compound A”, “#C4369) for 24 hours. On day 5, resazurin was added according to the manufacturer's instruction (RnD Systems, UK)” for “#C4369)”
as §2, with “3000” for “2500”, “48-72 hour” for “72 hours”, “synchronize the cells” for “synchronize”, “Next day,” for “On day 4,”, “compound” for “cPLA2α inhibitor Compound”, “or calcipotriol for 24 hours. Resazurin was added next day according to the manufacturer's instruction (RnD Systems, UK)” for “and vitamin D analogue Calcipotriol hydrate (Sigma Aldrich #C4369)”
as §1, with “1:4” for “1:3-1:4”
Cells were seeded in 96 well plates in fully supplemented medium at a density of 3000 cells per well. Following 72 hour of cultivation, the cells were starved of serum in 0.25% FBS/DMEM overnight to halt proliferation, synchronize the cells and to increase cell sensitivity to treatment. Next day, the cells were treated with Compound A, vitamin D analogue Calcipotriol and corticosteroid hormone receptor agonist Betamethasone dipropionate for 24 hours.

SMILES | increase of PGE2 ([1]; calcipotriol 0.5 μM alone) [%] | effect on PGE2 levels ([1]; high doses of calcipotriol alone (<0.5 μM)) | effect on proliferation and viability of HaCaT cells ([2]; Example 1, 10 μM, alone) | effect on HaCaT cell viability ([2]; Example 3/4, 24 hours, 15 μM, alone) | effect on HaCaT cell viability ([2]; Example 3, 24 hours, doses 1-10 μM, alone) | effect on HaCaT cell viability ([2]; Example 4, 10 μM, alone) | cytotoxicity at 10 µM ([2]; Homo sapiens, HaCaT, 24 h, read-out: reduction of cell proliferation and viability) [%] | reduction of cell proliferation and viability ([2]; Example 2, 24 hours, 50 μM Betamethasone alone) [%]
C=C1/C(=C\C=C2/CCC[C@]3(C)[C@@H]([C@H](C)/C=C/[C@@H](O)C4CC4)CC[C@@H]23)C[C@@H](O)C[C@@H]1O [Calcipotriol] | 18 | PGE2 levels increased | little or no effect | affect cell viability; also recorded: reduced cell viability | no signs of impairment in cell viability | no signs of impairment in cell viability | 20 | –
CCC(=O)OCC(=O)[C@@]1(OC(=O)CC)[C@@H](C)C[C@H]2[C@@H]3CCC4=CC(=O)C=C[C@]4(C)[C@@]3(F)[C@@H](O)C[C@@]21C [Betamethasone, Betamethasone 17, 21-dipropionate] | – | – | – | – | – | – | – | 10
